Series [1] is described as follows: Pharmacokinetics following a single dose in rat (LC-MS/MS of blood, one-compartment model). Format: in vivo. The conditions noted are these: single oral dose. As to the method:
Compounds were administered as a single dose (either 1 mg/kg bodyweight in 5% DMSO via the intravenous route or 3 mg/kg in 1% carboxymethylcellulose via the oral route) to three adult rats (using different rats for each compound and each route of administration).
Blood was then sampled at various time points (including just prior to dose administration) out to 24 hrs post dose, and the level of the various compounds was assessed using a validated LC-MS/MS assay. Briefly, 3-5 μl of the deproteinised sample was applied to a Waters Atlantis (C18 20×2.1 mm, 3 μm bead size) reverse phase chromatography column equilibrated in 0.1% formic acid in 95:5 water:actetonitrile. Over 3.5 minutes bound material was gradient eluted reaching 0.1% formic acid in 5:95 water:acetonitrile, followed by a step gradient back to 0.1% formic acid in 95:5 water:acetonitrile. The column eluent was then directed to an Applied Biosystems API 4000/3200 QTrap MS/MS mass spectrometer, with a Turbolonspray™ ion source operating in positive ion mode. The interface temperature was set at 650° C., with a 40 ms dwell time for each MRM transition, monitoring the following ions:
The internal standard in each determination was the related compound (S)-3-(2′,2′-dimethylpropanoylamino)-caprolactam, which was spiked into the sample prior to deproteinization. The lower limit of quantitation (LLOQ) for this assay was 2.4 ng/ml for each compound except (I′), where it was 38.1 ng/ml.
Following LC-MS/MS analysis of each collected sample, the pharmacokinetic disposition of the compound was modelled using Kinetica software, a well known software package for such applications.

A short description of series [2]: Water solubility (observation). It is filed as physicochemical.
For series [3], the system named is lung leukocyte recruitment and T-helper cell polarisation. Description: Ovalbumin-induced lung inflammation model of asthma (BAL leukocyte count, splenocyte Th1/Th2 ratio). It is filed as in vivo, Brown Norway rat. Particulars: rat, 30 mg/kg daily oral. The protocol:
Adult Brown Norway rats (200-300 g body weight; n=10 per group) were sensitised by a single intraperitoneal injection of 0.1 mg Ovalbumin on day 0. Each rat then received an intratracheal challenge with a solution of 1% ovalbumin (w/v) on day 8, and with 2% ovalbumin (w/v) on days 15, 18 and 21. The animals were then sacrificed 3 hours after the final challenge on day 21. Note that ovalbumin (Sigma; purest available grade) was made endotoxin-free by passage over EndoTrap™ Red columns (purchased from Cambrex; used in accordance with the manufacturer's instructions), and the endotoxin level was confirmed as <5 EU/mg protein using the LAL assay (QCL-1000™; Cambrex; performed in accordance with the manufacturer's instructions; 1 mg of standard endotoxin contains ˜900,000 EU/mg). […]
On sacrifice, total lung leukocyate recruitment was assessed by performing a broncheoalveolar lavage (BAL) using 4 lots of 3 ml sterile phosphate-buffered saline introduced through a tracheal cannula. For each animal, the BAL washes were combined, and the total cell population counted (using a haemocytometer). […]
The spleen was also removed from each […] and placed in RPMI+10% FCS+antibiotics. […] The resulting cell suspension was then centrifuged (328 g; 5 mins) and washed in RPMI+10% FCS+antibiotics, before being resuspended in fresh media and counted using a haemocytometer. […]

Series [4] is described as follows: Potency in vivo, model not stated. The conditions noted are these: prior art peptides compared.
The conditions of series [5]: in vivo, cited from earlier work.
The subject of series [6] is chemokine-induced migration. Description: BSCI activity in vitro, chemokine-induced migration (general statements). Format: cell-based. The conditions noted are these: prior art peptides compared.

As for `CC(C)(C)C(=O)NC1CCCNC1=O` (stereo not shown) [Compound (I), 3-(2′,2′-dimethylpropanoylamino)-tetrahydropyridin-2-one], in series [1], the “exposure following a single oral dose, fold higher than the other lactam BSCIs tested” value is reported as “more than 10 fold”. For the same compound, the “water solubility” value in series [2] is reported as “significant water solubility”.

As for `CC(C)(O)c1ccccc1CC[C@@H](SCC1(CC(=O)O)CC1)c1cccc(/C=C/c2ccc3ccc(Cl)cc3n2)c1` [monteleukast], the “number of leukocytes in the BAL washes” value in series [3] is reported as “significantly reduced the number of leukocytes in the BAL washes”.

“c(DCys-DGln-DIle-DTrp-DLys-DGln-DLys-DPro-DAsp-DLeu-DCys)-NH2 [NR58-3.14.3]”: the “fold less potent in vivo” value in series [4] is recorded as > 10,000 fold. In addition, the “half-life period of clearance from blood plasma” value in series [5] (iv) was “less than 30 minutes”. For the same compound, the “oral bioavailability” value in series [5] (po) is “not orally bioavailable”. For the same compound, the “fold less potent in vitro” value in series [6] was over 25 fold.

These data come from patent US7897620B2, “Methods of using anti-inflammatory compounds” (Cambridge Enterprise Limited, priority 2007, dated 2011).
